According to patent publication US10196604B2, “Mitochondrial inhibitors for use in culturing pluripotent stem cells” (The Board of Trustees of the Leland Stanford Junior …, priority 2014, dated 2019):

Assays:
[1] = test system: SURVIVIN; assay: qRT-PCR gene expression in hES cells: SURVIVIN; assay type: cell-based; conditions: Homo sapiens, 72 hours, normalized to β-ACTIN, read-out: Expression relative to control, SURVIVIN; for fold induction at 1000 µM: 1 mM
Experimental: (§1) Total cellular RNA was extracted from cells using TRIzol (Invitrogen) and DNase treated with the DNA-free kit (Ambion, Austin, Tex., http (colon slash slash) www (dot) ambion.com) following manufacturer's directions for stringent conditions. RNA was dialyzed for 30 minutes against milliqwater, 10 mM Tris and 1 mM EDTA adjusted to pH 7.5 with HCL (all from Fisher). cDNA was synthesized using GeneAmp RNA PCR kit from Applied Biosciences (Fisher) and no-RT reactions were performed without reverse transcriptase and RNase inhibitor enzymes. One microgram of RNA was used, following manufacturer's directions. Quantitative real time polymerase chain reaction (qPCR) was performed to determine relative mRNA expression levels. Expression fold changes were calculated using the ΔΔCt method and normalized using the housekeeping gene, β-ACTIN as an internal control. Taqman master mix and gene assays with water only were used as a negative control. mRNA expression assays were analyzed in a triplicate PCR reaction with no-RT negative controls and each experiment was performed at least three independent times. Primers for OCT4 and NANOG were selected from predeveloped Applied Biosystems TaqMan Assays, which are pre-designed qPCR primers and TaqMan MGB probes; Oct-4 (Hs01895061_u1) and Nanog (Hs02387400_g1) were selected. Primers for SURVIVIN were: […]
(§2) Based on the toxicity results, nine of the above twelve compounds in Example 1 were selected for further screening to assess their effects on the expression of OCT4, NANOG and SURVIVIN in human embryonic stem cells. The results are summarized in Table 2, along with the mitochondrial inhibition activities for these compounds which were disclosed in US20110301180A1 to Collman et al. the content of which has been incorporated herein by reference.
(§3) The pluripotency of these cultured human embryonic stem cells were characterized by the marker gene expression as analyzed by Quantitative Reverse Transcriptase PCR (qRT-PCR). All compounds were tested at 1 mM concentration for 72 hours except for compound 1 which was tested at 10 μM. The reversibility of mitochondrial inhibition is presented in the right column.

[2] = test system: OCT4; assay: qRT-PCR gene expression in hES cells: OCT4; assay type: cell-based, human; conditions: 72 hours
Experimental: as §1, §2, §3

[3] = test system: NANOG; assay: qRT-PCR gene expression in hES cells: NANOG; assay type: cell-based; conditions: Homo sapiens, 72 hours, normalized to β-ACTIN, read-out: Expression relative to control, NANOG; for fold induction at 1000 µM: 1 mM
Experimental: as §1, §2, §3

[4] = test system: SURVIVIN, OCT4 and NANOG; assay: qRT-PCR of the three probed genes together (SURVIVIN, OCT4, NANOG) in hES cells; assay type: cell-based, human; conditions: 72 hours
Experimental: as §1, §2, §3

[5] = test system: mitochondrial respiration; conditions: cited from earlier work; for mitochondrial inhibition IC50: values from US 20110301180; for Inhibition/Reversibility in mitochondrial inhibition: disclosed in US20110301180A1
[6] = test system: NANOG; conditions: human embryonic stem cells; cited from earlier work
[7] = Solubility in the culture media; assay type: physicochemical; conditions: hES cell culture media
Source text: Compound 2 was not soluble in the culture media and was not tested further.

[8] = test system: human embryonic stem cells; assay: Toxicity testing of mitochondrial inhibitors on hES cells (72 hr culture, crystal violet staining); conditions: for nontoxic concentration (no toxicity up to): tested from 0.1 mM to 50 mM
Experimental: Human ES cells, WA09 (WiCell Research Institute, Madison, Wis.) were cultured on dishes coated for at least two hours with Matrigel (BD Biosciences, Franklin Lakes, N.J.). hES cell media containing 80% knockout Dulbecco's modified eagle medium (DMEM), 20% knockout serum replacer, 1% nonessential amino acids, 1% penicillin/streptomycin (100 U per 100 μg/ml), 2 mM L-glutamine, (all from Invitrogen, Carlsbad, Calif.) and 4 ng/ml basic fibroblast growth factor (bFGF, ReproCELL, San Jose, Calif.) was pre-conditioned by culture with inactivated mouse embryonic fibroblasts (MEF; Millipore, Billerica, Mass.) and collected every two days. hES cell lines were cultured with human conditioned media (HuCM) supplemented with 4 ng/ml bFGF and a heterocyclic compound of a certain concentration. hES cells were maintained by weekly manual passaging or bulk passaging using 1 mg/ml Collagenase IV (Invitrogen). hES cells were plated for experiments using Accutase (Fisher, Pittsburgh, Pa.) and plated at a density of 26,000 cells/cm^2.
Toxicity Testing hES cells were plated as above and subjected to increasing concentrations of the mitochondrial inhibitors for 72 hr of culture. After 72 hr the cells were fixed in 2.0% formaldehyde and stained for 30 min with 0.05% crystal violet in distilled water. Stained cells were rinsed twice with distilled water and imaged using bright field microscopy.
These compounds were initially tested at concentrations from 0.1 mM to 50 mM.

[9] = Homo sapiens, 1 mM, normalized to β-ACTIN, read-out: Expression relative to control, OCT4

SMILES: O=C(O)Cc1nnn[nH]1 [Compound 11, 2-(1H-tetrazol-5-yl)acetic acid]
- fold induction at 1000 µM [1]: 0.975
- fold induction at 1000 µM [2, 9]: 1.07
- fold induction at 1000 µM [3]: 0.849
- One of the genes overexpressed by at least 10% ([4]; 1 mM): No
- change in expression of SURVIVIN, OCT4 and NANOG following treatment (FIG. 2) ([4]; 1 mM): increase in OCT4 and no other genes

SMILES: O=C(O)CCCC[C@H]1CCSS1 (single isomer, unassigned) [Compound 3, 5-[(3R or 3S)-dithiolan-3-yl]pentanoic acid]
- fold induction at 1000 µM [1]: 1.11
- fold induction at 1000 µM [2, 9]: 1.85
- mitochondrial inhibition IC50 [5]: 37.1 mg/mL
- fold induction at 1000 µM [3]: 0.717
- One of the genes overexpressed by at least 10% ([4]; 1 mM): Yes
- change in expression of SURVIVIN, OCT4 and NANOG following treatment (FIG. 2) ([4]; 1 mM): increased expression of SURVIVIN and OCT4 but not NANOG

SMILES: CCCCCC[C@H]1C(=O)O[C@H](C)[C@H](NC(=O)c2cccc(NC=O)c2O)C(=O)O[C@@H](C)[C@@H]1OC(=O)CC(C)C [Antimycin A, [(2R,3S,6S,7R,8R)-3-[(3-formamido-2-hydroxybenzoyl)amino]-8-hexyl-2,6-dimethyl-4,9-dioxo-1,5-dioxonan-7-yl] 3-methylbutanoate]
- effect on expression of pluripotency factor NANOG [6]: increase in the expression of pluripotency factor NANOG

SMILES: c1ccc(CSc2nnn[nH]2)cc1 [Compound 2, 5-benzylsulfanyl-1H-tetrazole]
- solubility in the culture media [7]: not soluble

SMILES: CSc1nnn[nH]1 [Compound 12, 5-methylsulfanyl-1H-tetrazole]
- fold induction at 1000 µM [1]: 1.05
- fold induction at 1000 µM [2, 9]: 1.16
- Inhibition/Reversibility in mitochondrial inhibition [5]: reversible mitochondrial inhibitors and Yes
- mitochondrial inhibition IC50 [5]: 14.5 mg/mL
- fold induction at 1000 µM [3]: 0.844
- One of the genes overexpressed by at least 10% ([4]; 1 mM): Yes
- change in expression of SURVIVIN, OCT4 and NANOG following treatment (FIG. 2) ([4]; 1 mM): increased expression of SURVIVIN and OCT4 but not NANOG

SMILES: Cc1cncs1 [Compound 4, 5-methylthiazole]
- fold induction at 1000 µM [1]: 1.27
- fold induction at 1000 µM [2, 9]: 1.13
- Inhibition/Reversibility in mitochondrial inhibition [5]: reversible mitochondrial inhibitors and Yes
- mitochondrial inhibition IC50 [5]: 23.5 mg/mL
- fold induction at 1000 µM [3]: 1.14
- nontoxic concentration (no toxicity up to) [8]: ≤ 10 mM
- One of the genes overexpressed by at least 10% ([4]; 1 mM): Yes
- change in expression of SURVIVIN, OCT4 and NANOG following treatment (FIG. 2) ([4]; 1 mM): increased expression of all three genes

SMILES: Cc1ncsc1CCOC(=O)C[P+](c1ccccc1)(c1ccccc1)c1ccccc1.[Br-] [Compound 1, [2-[2-(4-methylthiazol-5-yl)ethoxy]-2-oxo-ethyl]-triphenyl-phosphonium bromide]
- fold induction at 10 µM ([1]; 10 μM): 0.892
- fold induction at 10 µM ([2]; Homo sapiens, 10 μM, normalized to β-ACTIN, read-out: Expression relative to control, OCT4): 0.9
- Inhibition/Reversibility in mitochondrial inhibition [5]: No
- mitochondrial inhibition IC50 [5]: 8.8 mg/mL
- fold induction at 10 µM ([3]; 10 μM): 0.902
- toxicity at the initially tested concentrations ([8]; initial range 0.1 mM to 50 mM): toxic at all concentrations tested initially
- nontoxic / well tolerated concentration (up to) ([8]; retested at 0.1 to 100 μM): up to 10 μM
- One of the genes overexpressed by at least 10% ([4]; 10 μM): No
- change in expression of SURVIVIN, OCT4 and NANOG following treatment (FIG. 2) ([4]; 10 μM): decreased expression of all three genes

SMILES: CCOC(=O)Cc1nnn[nH]1 [Compound 6, ethyl 2-(1H-tetrazol-5-yl)acetate]
- fold induction at 1000 µM [1]: 1.75
- fold induction at 1000 µM [2, 9]: 1.34
- mitochondrial inhibition IC50 [5]: 100 mg/mL
- fold induction at 1000 µM [3]: 0.867
- One of the genes overexpressed by at least 10% ([4]; 1 mM): Yes
- change in expression of SURVIVIN, OCT4 and NANOG following treatment (FIG. 2) ([4]; 1 mM): increased expression of SURVIVIN and OCT4 but not NANOG

SMILES: Brc1nn[nH]c1Br [Compound 9, 4,5-dibromo-1H-triazole]
- toxicity at 1 mM ([8]; 1 mM): minimal toxicity
- nontoxic concentration (no toxicity up to) [8]: up to 0.1 mM

SMILES: Cn1c(-c2ccccc2)cnc1S [Compound 5, 3-methyl-4-phenyl-1H-imidazole-2-thione]
- fold induction at 1000 µM [1]: 1.44
- fold induction at 1000 µM [2, 9]: 1.5
- mitochondrial inhibition IC50 [5]: 5.4 mg/mL
- fold induction at 1000 µM [3]: 1.16
- nontoxic concentration (no toxicity up to) [8]: at least 5 mM
- One of the genes overexpressed by at least 10% ([4]; 1 mM): Yes
- change in expression of SURVIVIN, OCT4 and NANOG following treatment (FIG. 2) ([4]; 1 mM): increased expression of all three genes

SMILES: Cc1nnn[nH]1 [Compound 10, 5-methyl-1H-tetrazole]
- fold induction at 1000 µM [1]: 0.981
- fold induction at 1000 µM [2, 9]: 0.977
- fold induction at 1000 µM [3]: 0.778
- One of the genes overexpressed by at least 10% ([4]; 1 mM): No
- change in expression of SURVIVIN, OCT4 and NANOG following treatment (FIG. 2) ([4]; 1 mM): decreased expression of all three genes

SMILES: Nc1nnn[nH]1 [Compound 7, 1H-tetrazol-5-amine]
- fold induction at 1000 µM [1]: 1.73
- OCT4 overexpression ([2]; 1 mM, vs control): at least 50%
- fold induction at 1000 µM [2, 9]: 1.53
- Inhibition/Reversibility in mitochondrial inhibition [5]: reversible mitochondrial inhibitors and Yes
- mitochondrial inhibition IC50 [5]: 8.5 mg/mL
- fold induction at 1000 µM [3]: 0.917
- One of the genes overexpressed by at least 10% ([4]; 1 mM): Yes
- change in expression of SURVIVIN, OCT4 and NANOG following treatment (FIG. 2) ([4]; 1 mM): increased expression of SURVIVIN and OCT4 but not NANOG
